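96-well plates; 48 h exposure; 5 concentrations. Endpoints by linear interpolation between flanking doses. Not reached: highest tested concentration assigned. GI50 is the concentration that inhibits growth by half.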 Active and inactive are the calls of the source. Rule as the data show it: active = GI50 up to about 1.1 µM and inactive = higher.
Columns and labels:
Assay in all cases: NCI anticancer screen, dose series, 48 h
UACC-62 = tested on: UACC-62
UO-31 = tested on: UO-31
CCRF-CEM = tested on: CCRF-CEM
KM12 = tested on: KM12
HCT-116 = tested on: HCT-116
NCI-H522 = tested on: NCI-H522
OVCAR-4 = tested on: OVCAR-4
SF-539 = tested on: SF-539
SN12C = tested on: SN12C
OVCAR-5 = tested on: OVCAR-5
HCC 2998 = tested on: HCC 2998
T47D = tested on: T47D
PC-3 = tested on: PC-3
BT-549 = tested on: BT-549
M14 = tested on: M14
Malme-3M = tested on: Malme-3M
SK-OV-3 = tested on: SK-OV-3
HOP-62 = tested on: HOP-62
SF-295 = tested on: SF-295
DU-145 = tested on: DU-145

Row | SMILES | GI50 (UACC-62) | GI50 (UO-31) | GI50 (CCRF-CEM) | GI50 (KM12) | GI50 (HCT-116) | GI50 (NCI-H522) | GI50 (OVCAR-4) | GI50 (SF-539) | GI50 (SN12C) | GI50 (OVCAR-5) | GI50 (HCC 2998) | GI50 (T47D) | GI50 (PC-3) | GI50 (BT-549) | GI50 (M14) | GI50 (Malme-3M) | GI50 (SK-OV-3) | GI50 (HOP-62) | GI50 (SF-295) | GI50 (DU-145)
1 | O=C1CSC2(CC(/C=C/C=C/c3ccccc3)=NN2c2cccc(S(=O)(=O)O)c2)N1c1nc2ccccc2s1 (centres undefined) | 35.2 µM (inactive) | 45.3 µM (inactive) | 20.8 µM (inactive) | 45.8 µM (inactive) | 46.5 µM (inactive) | 4.71 µM (inactive) | 36.9 µM (inactive) | 51.1 µM (inactive) | 62.5 µM (inactive) | > 100 µM (inactive) | 69.7 µM (inactive) | 23.4 µM (inactive) | 37.3 µM (inactive) | 51.5 µM (inactive) | 60.4 µM (inactive) |  |  |  |  | 
2 | Cn1c(=O)nc2n(-c3ccc(O)cc3)c3ccccc3nc-2c1=O | 16.4 µM (inactive) | > 100 µM (inactive) | 33 µM (inactive) | 55.3 µM (inactive) | > 100 µM (inactive) | > 100 µM (inactive) | > 100 µM (inactive) | 5.56 µM (inactive) | > 100 µM (inactive) | > 100 µM (inactive) | 29.9 µM (inactive) |  |  |  | 20.4 µM (inactive) | 18.9 µM (inactive) | > 100 µM (inactive) | 55.8 µM (inactive) | > 100 µM (inactive) | 
3 | COC(=O)C(C(=O)C(=O)Nc1c(Cl)cc([N+](=O)[O-])cc1Cl)c1csc(-n2nc(C3=CCCCC3)cc2-c2ccccc2)n1 (centres undefined) | 65.8 µM (inactive) | 25.9 µM (inactive) | 73.5 µM (inactive) | 45 µM (inactive) | 42.5 µM (inactive) | 45.2 µM (inactive) | > 100 µM (inactive) | 34.8 µM (inactive) | 67.9 µM (inactive) | 35 µM (inactive) | > 100 µM (inactive) |  |  |  | > 100 µM (inactive) | > 100 µM (inactive) | 34.3 µM (inactive) | 64.9 µM (inactive) | 43.8 µM (inactive) | 
4 | COC(=O)/C(=C1\OC(=O)C(c2ccc(Cl)cc2)=C1O)c1ccc(Cl)cc1 | 17.9 µM (inactive) | 28.7 µM (inactive) | 24.2 µM (inactive) | 23.8 µM (inactive) | 19.8 µM (inactive) | 17.2 µM (inactive) | 9.71 µM (inactive) | 23.4 µM (inactive) | 30.5 µM (inactive) | 31.5 µM (inactive) | 28.7 µM (inactive) |  |  |  | 31.2 µM (inactive) | 16.2 µM (inactive) | 28.8 µM (inactive) | 17.7 µM (inactive) | 19.2 µM (inactive) | 
5 | CC(C)[Si](CC1=CCCCC12C(=O)N(COCC[Si](C)(C)C)c1ccccc12)(C(C)C)C(C)C (centres undefined) | > 100 µM (inactive) | > 100 µM (inactive) | 0.448 µM (active) | > 100 µM (inactive) |  | 41.8 µM (inactive) | > 100 µM (inactive) | 73.1 µM (inactive) |  | 27.2 µM (inactive) | 65.6 µM (inactive) | 33.7 µM (inactive) | > 100 µM (inactive) |  | > 100 µM (inactive) | > 100 µM (inactive) | > 100 µM (inactive) | > 100 µM (inactive) | 31.1 µM (inactive) | 66.7 µM (inactive)
6 | CCCCC1(O)CC2CC1C(C)C2(C)C (centres undefined) | > 100 µM (inactive) | > 100 µM (inactive) | 93.5 µM (inactive) | > 100 µM (inactive) | > 100 µM (inactive) |  | > 100 µM (inactive) | > 100 µM (inactive) | > 100 µM (inactive) | > 100 µM (inactive) | > 100 µM (inactive) |  | > 100 µM (inactive) | > 100 µM (inactive) | > 100 µM (inactive) | > 100 µM (inactive) | > 100 µM (inactive) | > 100 µM (inactive) | > 100 µM (inactive) | > 100 µM (inactive)
7 | CCOC(=O)c1c(N2CCCC2)ncn(C)c1=S | > 100 µM (inactive) | 41.6 µM (inactive) | > 100 µM (inactive) | > 100 µM (inactive) | > 100 µM (inactive) | > 100 µM (inactive) | > 100 µM (inactive) | > 100 µM (inactive) | > 100 µM (inactive) | > 100 µM (inactive) | > 100 µM (inactive) | > 100 µM (inactive) | > 100 µM (inactive) |  | > 100 µM (inactive) | > 100 µM (inactive) |  | > 100 µM (inactive) | > 100 µM (inactive) | > 100 µM (inactive)
8 | CCOC(=O)c1nc2ccc(C(F)(F)F)cc2nc1Oc1cc(OC)c(OC)c(OC)c1 | 94.8 µM (inactive) | > 100 µM (inactive) | > 10 µM (inactive) | 40.2 µM (inactive) | 50.9 µM (inactive) |  | 2.64 µM (inactive) | 62.2 µM (inactive) | > 100 µM (inactive) | 97.9 µM (inactive) |  | > 100 µM (inactive) | > 100 µM (inactive) | > 100 µM (inactive) | > 100 µM (inactive) | 35.3 µM (inactive) | > 100 µM (inactive) | 25.6 µM (inactive) | 97.3 µM (inactive) | 46.8 µM (inactive)
9 | C=CCOC(=O)Cn1cc(C)c(=O)[nH]c1=O | > 100 µM (inactive) | > 100 µM (inactive) | > 100 µM (inactive) | > 100 µM (inactive) | > 100 µM (inactive) |  | > 100 µM (inactive) | > 100 µM (inactive) | > 100 µM (inactive) |  | > 100 µM (inactive) | > 100 µM (inactive) | > 100 µM (inactive) |  | > 100 µM (inactive) | > 100 µM (inactive) | > 100 µM (inactive) | > 100 µM (inactive) | > 100 µM (inactive) | > 100 µM (inactive)
10 | COC(=O)C1CCC2(CC1)NC(=O)NC2=O (centres undefined) | > 100 µM (inactive) | > 100 µM (inactive) | > 100 µM (inactive) | > 100 µM (inactive) | > 100 µM (inactive) | > 100 µM (inactive) | > 100 µM (inactive) | > 100 µM (inactive) | > 100 µM (inactive) | > 100 µM (inactive) | > 100 µM (inactive) |  |  |  | > 100 µM (inactive) | > 100 µM (inactive) | > 100 µM (inactive) | > 100 µM (inactive) | > 100 µM (inactive) | 
11 | CNC(=S)/C(C#N)=C(\N)N1CCCC1 | > 100 µM (inactive) | > 100 µM (inactive) | > 100 µM (inactive) | > 100 µM (inactive) | > 100 µM (inactive) | > 100 µM (inactive) |  | > 100 µM (inactive) | > 100 µM (inactive) | > 100 µM (inactive) | > 100 µM (inactive) | 57.5 µM (inactive) | > 100 µM (inactive) |  |  | > 100 µM (inactive) | > 100 µM (inactive) | > 100 µM (inactive) |  | > 100 µM (inactive)
12 | CCOc1ccc(NC(=O)C(=O)Nn2c(N)nnc2N)cc1 | > 100 µM (inactive) | > 100 µM (inactive) | > 100 µM (inactive) | > 100 µM (inactive) | > 100 µM (inactive) | > 100 µM (inactive) | > 100 µM (inactive) | > 100 µM (inactive) | > 100 µM (inactive) | > 100 µM (inactive) | > 100 µM (inactive) | > 100 µM (inactive) | > 100 µM (inactive) | > 100 µM (inactive) | > 100 µM (inactive) | > 100 µM (inactive) | > 100 µM (inactive) | > 100 µM (inactive) | > 100 µM (inactive) | 
13 | Cc1nc2ccc(Cl)cc2c2c1CCN2c1ccc(F)cc1 | 15.2 µM (inactive) | 5.4 µM (inactive) | 11.6 µM (inactive) | 25.8 µM (inactive) | 5.75 µM (inactive) | 44.2 µM (inactive) | 5.9 µM (inactive) | 22.3 µM (inactive) | 26.5 µM (inactive) | 84.9 µM (inactive) | 23.6 µM (inactive) | 36.1 µM (inactive) | 11 µM (inactive) |  | 16.5 µM (inactive) | 24.8 µM (inactive) | > 100 µM (inactive) | 18.9 µM (inactive) | 82.8 µM (inactive) | 58.3 µM (inactive)
14 | CC(C)(CN1CCCCC1)C(=O)/C=C/c1ccccc1 | 18.9 µM (inactive) | 15.2 µM (inactive) | 5.93 µM (inactive) | 9.25 µM (inactive) | 15.3 µM (inactive) | 13.2 µM (inactive) | 26 µM (inactive) | 10.8 µM (inactive) | 15.4 µM (inactive) | 19.9 µM (inactive) | 14.7 µM (inactive) |  |  |  | 18.7 µM (inactive) | 14.6 µM (inactive) | 21.3 µM (inactive) | 24.7 µM (inactive) | 15.5 µM (inactive) | 
15 | CC(NC(=O)N(C)C)NC(=O)N(C)C | > 10 µM (inactive) | > 10 µM (inactive) | > 10 µM (inactive) | > 10 µM (inactive) | > 10 µM (inactive) | > 10 µM (inactive) | > 10 µM (inactive) | > 10 µM (inactive) | > 10 µM (inactive) |  | > 10 µM (inactive) | > 10 µM (inactive) | > 10 µM (inactive) |  | > 10 µM (inactive) | > 10 µM (inactive) | > 10 µM (inactive) | > 10 µM (inactive) | > 10 µM (inactive) | > 10 µM (inactive)
16 | CC/C(=C\c1ccc(OC)cc1)c1ccc(OC)cc1 | > 100 µM (inactive) | > 100 µM (inactive) | > 100 µM (inactive) | > 100 µM (inactive) | > 100 µM (inactive) | > 100 µM (inactive) | > 100 µM (inactive) | > 100 µM (inactive) | > 100 µM (inactive) | 66.7 µM (inactive) | > 100 µM (inactive) |  | > 100 µM (inactive) | 75.3 µM (inactive) | 72.6 µM (inactive) | 50.7 µM (inactive) | > 100 µM (inactive) | > 100 µM (inactive) | 53.3 µM (inactive) | > 100 µM (inactive)

Source: ChEMBL document CHEMBL1201862, “PubChem BioAssay data set” (2004)
